Results taken from PubChem BioAssay AID256 (DTP/NCI, 2004).
Where “and” joins values, the source holds several entries; their conditions need not be identical. Equal entries are not always repeated. Inconclusive results and toxic doses are left out.

Test system: CD2F1 mice, L1210 leukemia ip, survival T/C
Assay: NCI In Vivo Anticancer Drug Screen. Data for tumor model L1210 Leukemia (intraperitoneal) in CD2F1 (CDF1) mice
Details: higher = longer survival
How it was run: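 Activity against a transplanted murine tumor was judged by comparing the compound group with a vehicle group. The outcome in the treated animals was divided by that in the controls.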

[1] = endpoint: mean survival time, dose: 50.0 mg/kg/injection, schedule: Q01DX009 (ip), vehicle: saline with Tween-80
[2] = endpoint: mean survival time, dose: 100.0 mg/kg/injection, schedule: Q01DX009 (ip), vehicle: saline with Tween-80
[3] = endpoint: mean survival time, dose: 200.0 mg/kg/injection, schedule: Q01DX009 (ip), vehicle: saline with Tween-80
[4] = endpoint: mean survival time, dose: 400.0 mg/kg/injection, schedule: Q01DX009 (ip), vehicle: saline with Tween-80
[5] = endpoint: mean survival time, dose: 37.5 mg/kg/injection, schedule: Q01DX009 (ip), vehicle: saline
[6] = endpoint: mean survival time, dose: 75.0 mg/kg/injection, schedule: Q01DX009 (ip), vehicle: saline
[7] = endpoint: mean survival time, dose: 75.0 mg/kg/injection, schedule: Q04DX003 (ip), vehicle: saline
[8] = endpoint: mean survival time, dose: 150.0 mg/kg/injection, schedule: Q01DX009 (ip), vehicle: saline
[9] = endpoint: mean survival time, dose: 150.0 mg/kg/injection, schedule: Q04DX003 (ip), vehicle: saline
[10] = endpoint: mean survival time, dose: 300.0 mg/kg/injection, schedule: Q04DX003 (ip), vehicle: saline
[11] = endpoint: mean survival time, dose: 100.0 mg/kg/injection, schedule: Q04DX003 (ip), vehicle: saline with Tween-80
[12] = endpoint: mean survival time, dose: 200.0 mg/kg/injection, schedule: Q04DX003 (ip), vehicle: saline with Tween-80

With `CC(=O)Oc1ccc[nH]c1=O` the T/C (endpoint: mean survival time, dose: 400.0 mg/kg/injection, schedule: Q01DX009 (ip), vehicle: saline) was 150 % of control and 156 % of control, the T/C (endpoint: mean survival time, dose: 600.0 mg/kg/injection, schedule: Q01DX009 (ip), vehicle: saline) was 100 % of control and 108 % of control and the T/C (endpoint: median survival time, dose: 16.7 mg/kg/injection, schedule: Q03HX027 (ip), vehicle: saline with Tween-80) was 103 % of control. The T/C (endpoint: median survival time, dose: 33.0 mg/kg/injection, schedule: Q03HX027 (ip), vehicle: saline with Tween-80) was 91 % of control and 102 % of control, the T/C (endpoint: median survival time, dose: 50.0 mg/kg/injection, schedule: Q01DX009 (ip), vehicle: saline with Tween-80) was 100 % of control and 101 % of control and the T/C (endpoint: median survival time, dose: 66.7 mg/kg/injection, schedule: Q03HX027 (ip), vehicle: saline with Tween-80) was 91 % of control and 93 % of control and 103 % of control. The T/C (endpoint: median survival time, dose: 100.0 mg/kg/injection, schedule: Q01DX009 (ip), vehicle: saline with Tween-80) was 100 % of control and 102 % of control and 103 % of control, the T/C (endpoint: median survival time, dose: 133.0 mg/kg/injection, schedule: Q03HX027 (ip), vehicle: saline with Tween-80) was 102 % of control and 103 % of control and 106 % of control and the T/C (endpoint: median survival time, dose: 200.0 mg/kg/injection, schedule: Q01DX009 (ip), vehicle: saline with Tween-80) was 103 % of control (2×) and 111 % of control. For the same compound, the T/C (endpoint: median survival time, dose: 266.0 mg/kg/injection, schedule: Q03HX027 (ip), vehicle: saline with Tween-80) was 185 % of control.

For `Cc1cc(Cl)ccc1NC(=O)OCCOc1ccc([N+](=O)[O-])cc1`, the T/C [1] was 96 % of control, the T/C [2] was 96 % of control and the T/C [3] was 100 % of control.

For `C/C(=C/Cc1c(O)c(C)c2c(c1O)C(=O)OC2)CCC(=O)NCCc1ccccc1`, the T/C (endpoint: mean survival time, dose: 100.0 mg/kg/injection, schedule: Q04DX002 (ip), vehicle: saline with Tween-80) was 87 % of control, the T/C (endpoint: mean survival time, dose: 200.0 mg/kg/injection, schedule: Q04DX002 (ip), vehicle: saline with Tween-80) was 87 % of control and the T/C (endpoint: mean survival time, dose: 400.0 mg/kg/injection, schedule: Q04DX002 (ip), vehicle: saline with Tween-80) was 96 % of control.

In the case of `Nc1nc(N)c(-c2ccc(Cl)cc2)c(CNc2cccc([N+](=O)[O-])c2)n1`, the T/C (endpoint: mean survival time, dose: 100.0 mg/kg/injection, schedule: Q01DX001 (ip), vehicle: other) is reported as 95 % of control, the T/C (endpoint: mean survival time, dose: 200.0 mg/kg/injection, schedule: Q01DX001 (ip), vehicle: other) is reported as 94 % of control and the T/C (endpoint: mean survival time, dose: 400.0 mg/kg/injection, schedule: Q01DX001 (ip), vehicle: other) is reported as 90 % of control.

For `COC(=O)C(NC(=O)C(C)NC(=O)OCc1ccccc1)C(C)C` (stereo not given), the T/C [2] was 97 % of control, the T/C [3] was 93 % of control and the T/C [4] was 98 % of control.

In the case of `NNC(=O)CCC(=O)NN`, the T/C (endpoint: mean survival time, dose: 6.25 mg/kg/injection, schedule: Q01DX009 (ip), vehicle: saline) is reported as 111 % of control, the T/C (endpoint: mean survival time, dose: 12.5 mg/kg/injection, schedule: Q01DX009 (ip), vehicle: saline) is reported as 103 % of control and the T/C (endpoint: mean survival time, dose: 25.0 mg/kg/injection, schedule: Q01DX009 (ip), vehicle: saline) is reported as 97 % of control. For the same compound, the T/C (endpoint: mean survival time, dose: 100.0 mg/kg/injection, schedule: Q04DX003 (ip), vehicle: saline) was 98 % of control, the T/C (endpoint: mean survival time, dose: 200.0 mg/kg/injection, schedule: Q04DX003 (ip), vehicle: saline) was 113 % of control and the T/C (endpoint: mean survival time, dose: 400.0 mg/kg/injection, schedule: Q04DX003 (ip), vehicle: saline) was 101 % of control.

In the case of `CCC12CCCN=C1c1c([nH]c3ccccc13)CC2` (stereo not given), the T/C (endpoint: mean survival time, dose: 6.25 mg/kg/injection, schedule: Q04DX002 (ip), vehicle: saline with Tween-80) is reported as 102 % of control, the T/C (endpoint: mean survival time, dose: 12.5 mg/kg/injection, schedule: Q04DX002 (ip), vehicle: saline with Tween-80) is reported as 104 % of control and the T/C (endpoint: mean survival time, dose: 25.0 mg/kg/injection, schedule: Q04DX002 (ip), vehicle: saline with Tween-80) is reported as 98 % of control.

For `Cc1ccc(Cl)c2nc(-c3ccccc3)ccc12`, the T/C [5] was 105 % of control, the T/C [6] was 116 % of control and the T/C [7] was 112 % of control. For the same compound, the T/C [8] was 101 % of control, the T/C [9] was 103 % of control and the T/C [10] was 93 % of control.

For `CC(=N)N(C)CC(=O)O`, the T/C (endpoint: mean survival time, dose: 100.0 mg/kg/injection, schedule: Q04DX002 (ip), vehicle: saline) was 103 % of control, the T/C (endpoint: mean survival time, dose: 200.0 mg/kg/injection, schedule: Q04DX002 (ip), vehicle: saline) was 103 % of control and the T/C (endpoint: mean survival time, dose: 400.0 mg/kg/injection, schedule: Q04DX002 (ip), vehicle: saline) was 100 % of control.

`CC(=O)Nc1ccc(CC#N)cc1` was tested, and the T/C (endpoint: mean survival time, dose: 5.0 mg/kg/injection, schedule: Q04DX003 (ip), vehicle: saline sonified) was 103 % of control, the T/C (endpoint: mean survival time, dose: 10.0 mg/kg/injection, schedule: Q04DX003 (ip), vehicle: saline sonified) was 114 % of control and the T/C (endpoint: mean survival time, dose: 20.0 mg/kg/injection, schedule: Q04DX003 (ip), vehicle: saline sonified) was 94 % of control.

With `CCNC(=O)OCc1c(COC(=O)NCC)c(-c2ccc(Cl)c(Cl)c2)n2c1CCC2` the T/C (endpoint: mean survival time, dose: 0.78 mg/kg/injection, schedule: Q01DX009 (ip), vehicle: saline with Tween-80) was 101 % of control, the T/C (endpoint: mean survival time, dose: 1.56 mg/kg/injection, schedule: Q01DX009 (ip), vehicle: saline with Tween-80) was 108 % of control and the T/C [1] was 91 % of control and 94 % of control and 111 % of control.

`Cc1cccc(Cl)c1NC(=O)C(C)C` was tested, and the T/C (endpoint: mean survival time, dose: 100.0 mg/kg/injection, schedule: Q04DX003 (ip), vehicle: other) was 94 % of control, the T/C (endpoint: mean survival time, dose: 200.0 mg/kg/injection, schedule: Q04DX003 (ip), vehicle: other) was 91 % of control and the T/C (endpoint: mean survival time, dose: 400.0 mg/kg/injection, schedule: Q04DX003 (ip), vehicle: other) was 87 % of control.

With `C[S+](C)CC(=O)c1ccccc1O` the T/C [11] was 103 % of control, the T/C [12] was 99 % of control and the T/C (endpoint: mean survival time, dose: 400.0 mg/kg/injection, schedule: Q04DX003 (ip), vehicle: saline with Tween-80) was 100 % of control.

In the case of `CC(C)C[CH2][Pb]([Cl])([CH2]CC(C)C)[CH2]CC(C)C`, the T/C (endpoint: mean survival time, dose: 0.06 mg/kg/injection, schedule: Q01DX009 (ip), vehicle: saline) is reported as 97 % of control, the T/C (endpoint: mean survival time, dose: 0.12 mg/kg/injection, schedule: Q01DX009 (ip), vehicle: saline) is reported as 97 % of control and the T/C (endpoint: mean survival time, dose: 0.25 mg/kg/injection, schedule: Q01DX009 (ip), vehicle: saline) is reported as 97 % of control. For the same compound, the T/C (endpoint: mean survival time, dose: 0.5 mg/kg/injection, schedule: Q01DX009 (ip), vehicle: saline) was 100 % of control and the T/C (endpoint: mean survival time, dose: 1.0 mg/kg/injection, schedule: Q01DX009 (ip), vehicle: saline) was 100 % of control.

In the case of `COc1nc(NC2OC(CO)C(O)C(O)C2O)c(C(C)=O)c(=O)[nH]1` (stereo not given), the T/C (endpoint: median survival time, dose: 12.5 mg/kg/injection, schedule: Q01DX005 (ip), vehicle: saline) is reported as 97 % of control, the T/C (endpoint: median survival time, dose: 25.0 mg/kg/injection, schedule: Q01DX005 (ip), vehicle: saline) is reported as 98 % of control and the T/C (endpoint: median survival time, dose: 50.0 mg/kg/injection, schedule: Q01DX005 (ip), vehicle: saline) is reported as 98 % of control. For the same compound, the T/C (endpoint: median survival time, dose: 100.0 mg/kg/injection, schedule: Q01DX005 (ip), vehicle: saline) was 97 % of control and the T/C (endpoint: median survival time, dose: 200.0 mg/kg/injection, schedule: Q01DX005 (ip), vehicle: saline) was 98 % of control.

For `CCC(CO)C(C)C` (stereo not given), the T/C [11] was 97 % of control and the T/C [12] was 100 % of control.

For `O/N=C\c1ccc2c(c1)OCCO2`, the T/C [5] was 97 % of control, the T/C [6] was 103 % of control and the T/C [7] was 112 % of control. The T/C [8] was 100 % of control, the T/C [9] was 100 % of control and the T/C [10] was 100 % of control.

For `COC(=O)C1(C)CCCC2(C)c3cc(OC)ccc3C=CC12` (stereo not given), the T/C [2] was 104 % of control, the T/C [3] was 106 % of control and the T/C [4] was 103 % of control.

For `O=C(/C=C/c1ccccn1)c1ccccc1`, the T/C (endpoint: mean survival time, dose: 100.0 mg/kg/injection, schedule: Q04DX002 (ip), vehicle: Klucel (hydroxypropylcellulose) (HPC)) was 97 % of control and the T/C (endpoint: mean survival time, dose: 200.0 mg/kg/injection, schedule: Q04DX002 (ip), vehicle: Klucel (hydroxypropylcellulose) (HPC)) was 104 % of control.

In the case of `Cc1ccc(S(=O)(=O)N/N=C/Cc2c(C)cc(C)cc2C)cc1`, the T/C (endpoint: median survival time, dose: 25.0 mg/kg/injection, schedule: Q04DX002 (ip), vehicle: saline with Tween-80) is reported as 100 % of control, the T/C (endpoint: median survival time, dose: 50.0 mg/kg/injection, schedule: Q04DX002 (ip), vehicle: saline with Tween-80) is reported as 100 % of control and the T/C (endpoint: median survival time, dose: 100.0 mg/kg/injection, schedule: Q04DX002 (ip), vehicle: saline with Tween-80) is reported as 100 % of control. For the same compound, the T/C (endpoint: median survival time, dose: 200.0 mg/kg/injection, schedule: Q04DX002 (ip), vehicle: saline with Tween-80) was 110 % of control.

For `CCCC(=O)O.CCCC(=O)O.CCCC(=O)O.CCCC(=O)O.[Rh].[Rh]`, the T/C (endpoint: mean survival time, dose: 0.03 mg/kg/injection, schedule: Q01DX009 (ip), vehicle: saline + alcohol) was 100 % of control and 104 % of control, the T/C (endpoint: mean survival time, dose: 0.06 mg/kg/injection, schedule: Q01DX009 (ip), vehicle: saline + alcohol) was 93 % of control and 104 % of control and the T/C (endpoint: mean survival time, dose: 0.12 mg/kg/injection, schedule: Q01DX009 (ip), vehicle: saline + alcohol) was 96 % of control and 110 % of control. The T/C (endpoint: mean survival time, dose: 0.25 mg/kg/injection, schedule: Q01DX009 (ip), vehicle: saline + alcohol) was 100 % of control and 104 % of control, the T/C (endpoint: mean survival time, dose: 0.5 mg/kg/injection, schedule: Q01DX009 (ip), vehicle: saline + alcohol) was 100 % of control and 112 % of control and the T/C (endpoint: mean survival time, dose: 1.0 mg/kg/injection, schedule: Q01DX009 (ip), vehicle: saline + alcohol) was 102 % of control and 110 % of control.
